Test results taken from US9296708B2, “Chimeric small molecules for the recruitment of antibodies to cancer cells” (YALE UNIVERSITY, priority 2008, dated 2016).
Residues, ends and D or L forms follow the SMILES beside them.

How the values were obtained:
Assay type in all cases: biochemical
[1] = target: T1, rhPSMA (Homo sapiens (Human), UniProt Q04609); assay: PSMA inhibition assay (NAAG hydrolysis, Amplex Red); conditions: for IC50: mean of triplicate experiments ± SD
[2] = target: T1, rhPSMA; assay: Measurement of PSMA Km; conditions: NAAG substrate, 40 μM-312.5 nM, room temperature 15 min
Experimental: A 10 mM solution of N-acetyl-aspartylglutamate (NAAG) in 40 mM NaOH, and was then diluted in Reaction Buffer (100 mM Tris-HCl, pH 7.5) to a final NAAG concentration of 40 µM. The solution was added to a 384 well plate (20 µL per well). […] Reaction Buffer (20 µL) was added to the Km control series. The plate was incubated at room temperature for 15 min, and then heated to 95° C. for 3 minutes. The plate was allowed to cool to room temperature, and glutamic acid levels were measured using a commercially available Amplex®—Red Glutamic Acid/Glutamate Oxidase Assay Kit (Invitrogen). Fluorescence intensities were measured using a Synergy 2 multiwell plate reader (Biotek), fitted with excitation and emission filters of 545 nm and 590 nm, respectively. […] This value is consistent with that reported in the literature^7 and was employed in subsequent Ki calculations (see below).

[3] = target: human recombinant PSMA (rhPSMA) (Homo sapiens (Human), UniProt Q04609); assay: NAALADase inhibition experiments (Amplex Red glutamate release); conditions: human recombinant PSMA (R&D Research); average of three runs ± standard deviation
Chain of human recombinant PSMA (rhPSMA) (Q04609 44-750 limits assumed): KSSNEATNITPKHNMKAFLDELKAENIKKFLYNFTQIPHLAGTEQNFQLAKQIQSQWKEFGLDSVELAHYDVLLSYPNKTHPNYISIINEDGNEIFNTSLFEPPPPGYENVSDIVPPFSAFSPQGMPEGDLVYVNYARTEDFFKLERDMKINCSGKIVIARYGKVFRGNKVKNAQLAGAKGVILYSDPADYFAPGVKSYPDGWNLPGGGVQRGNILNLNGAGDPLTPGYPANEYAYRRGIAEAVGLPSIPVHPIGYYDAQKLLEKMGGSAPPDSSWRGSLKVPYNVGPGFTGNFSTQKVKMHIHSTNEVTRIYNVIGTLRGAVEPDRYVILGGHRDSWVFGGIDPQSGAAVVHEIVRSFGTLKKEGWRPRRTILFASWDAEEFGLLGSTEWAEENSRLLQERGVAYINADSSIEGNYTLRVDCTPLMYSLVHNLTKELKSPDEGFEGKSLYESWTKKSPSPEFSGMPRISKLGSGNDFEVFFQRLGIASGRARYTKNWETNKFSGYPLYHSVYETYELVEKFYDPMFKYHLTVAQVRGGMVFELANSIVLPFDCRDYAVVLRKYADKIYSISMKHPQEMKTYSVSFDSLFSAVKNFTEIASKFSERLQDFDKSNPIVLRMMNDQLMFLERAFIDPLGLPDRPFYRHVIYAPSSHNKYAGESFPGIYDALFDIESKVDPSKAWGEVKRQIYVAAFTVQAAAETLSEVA
Experimental: A 10 mM stock solution of N-acetyl-aspartyl-glutamate (NAAG) in 40 mM NaOH was diluted to 40 μM in Tris buffer (0.1M Tris-HCl, pH=7.5), and was added to 384 well plate (25 μl per well). […] For IC50 measurements, solutions of recruiting molecule 3 in water (2 μL per well, dilution series) were added to wells. For all other wells, 2 μL of water was added. To initiate reactions, rhPSMA (R&D research) diluted in Tris buffer (20 pg/mL), was added to each well (25 μl per well). For negative controls, Tris buffer was added (25 μl per well). The plate was covered and incubated for 15 minutes, at which time the protein was deactivated by heating the plate to 95° C. for 3 minutes. After plate was allowed to cool, glutamic acid release was visualized using an Amplex®-Red glutamic acid/glutamate oxidase assay kit (Invitrogen). Km and IC50 values were calculated using graphpad prism software, and Ki was calculated from these values using the Cheng-Prusoff Equation. This process was run in triplicate, and is reported in the manuscript as the average of three runs±standard deviation.

[4] = Table 1, from IC50 and Km via Cheng-Prusoff equation
[5] = Table 2, Cheng-Prusoff equation, Km 925 nM

T1 sequence (Q04609 44-750): as the sequence (Q04609 44-750 limits assumed) above

SMILES	Ki [1, 4] [nM]	IC50 ([1]; Table 1, 20 μM NAAG) [nM]	Ki [1, 5] [nM]	IC50 ([1]; Table 2) [nM]	also measured
O=C(O)CC[C@H](NC(=O)N[C@@H](CCCCn1cc(CNc2ccc([N+](=O)[O-])cc2[N+](=O)[O-])nn1)C(=O)O)C(=O)O [1, ARM-P0, (S)-2-(3-((S)-1-carboxy-5-(4-((2,4-dinitrophenylamino)methyl)-1H-1,2,3-triazol-1-yl)pentyl)ureido)pentanedioic acid]	0.078 ± 0.018	1.76 ± 0.41			
O=C(O)CC[C@H](NC(=O)N[C@@H](CCCCn1cc(COCCNc2ccc([N+](=O)[O-])cc2[N+](=O)[O-])nn1)C(=O)O)C(=O)O [2, ARM-P1, (S)-2-(3-((S)-1-carboxy-5-(4-((2-(2,4-dinitrophenylamino)ethoxy)methyl)-1H-1,2,3-triazol-1-yl)pentyl)ureido)pentanedioic acid]	0.047 ± 0.005	1.05 ± 0.11			
O=C(O)CC[C@H](NC(=O)N[C@@H](CCCCn1cc(COCCOCCOCCOCCOCCOCCNc2ccc([N+](=O)[O-])cc2[N+](=O)[O-])nn1)C(=O)O)C(=O)O [5, ARM-P6]	0.101 ± 0.027	2.29 ± 0.6			
O=C(O)CC[C@H](NC(=O)N[C@@H](CCCCn1cc(COCCOCCOCCOCCOCCOCCOCCOCCOCCOCCOCCOCCNc2ccc([N+](=O)[O-])cc2[N+](=O)[O-])nn1)C(=O)O)C(=O)O [7, ARM-P12]	1.65 ± 0.72	37.3 ± 16.2			
COCc1cn(CCCC[C@H](NC(=O)N[C@@H](CCC(=O)O)C(=O)O)C(=O)O)nn1 [8, MeO-P0, (S)-2-(3-((S)-1-carboxy-5-(4-(methoxymethyl)-1H-1,2,3-triazol-1-yl)pentyl)ureido)pentanedioic acid]	1.35 ± 0.54	30.5 ± 12.1			
COCCOCCOCc1cn(CCCC[C@H](NC(=O)N[C@@H](CCC(=O)O)C(=O)O)C(=O)O)nn1 [9, MeO-P2, (S)-2-(3-((S)-1-carboxy-5-(4-((2-(2-methoxyethoxy)ethoxy)methyl)-1H-1,2,3-triazol-1-yl)pentyl)ureido)pentanedioic acid]	1.81 ± 0.42	40.8 ± 9.4			
COCCOCCOCCOCCOCCOCCOCCOCCOCc1cn(CCCC[C@H](NC(=O)N[C@@H](CCC(=O)O)C(=O)O)C(=O)O)nn1 [11, MeO-P8, (S)-2-(3-((S)-5-(4-2,5,8,11,14,17,20,23,26-nonaoxaheptacosyl-1H-1,2,3-triazol-1-yl)-1-carboxypentyl)ureido)pentanedioic acid]	5.79 ± 2.54	131 ± 57.6			
COCCOCCOCCOCCOCCOCCOCCOCCOCCOCCOCCOCCOCc1cn(CCCC[C@H](NC(=O)N[C@@H](CCC(=O)O)C(=O)O)C(=O)O)nn1 [12, MeO-P12, (S)-2-(3-((S)-5-(4-2,5,8,11,14,17,20,23,26,29,32,35,38-tridecaoxanonatriacontyl-1H-1,2,3-triazol-1-yl)-1-carboxypentyl)ureido)pentanedioic acid]	7.3 ± 2.6	165 ± 58.9			
O=C(O)CC[C@H](NC(=O)N[C@@H](CCCCn1cc(COCCOCCNc2ccccc2[N+](=O)[O-])nn1)C(=O)O)C(=O)O [Compound 13, (S)-2-(3-((S)-1-carboxy-5-(4-((2-(2-(2-nitrophenylamino)ethoxy)ethoxy)methyl)-1H-1,2,3-triazol-1-yl)pentyl)ureido)pentanedioic acid]			0.078 ± 0.007	1.78 ± 0.15	Ki ([1]; Table 2 analogues): 0.06 nM
O=C(O)CC[C@H](NC(=O)N[C@@H](CCCCn1cc(COCCOCCNc2ccc([N+](=O)[O-])cc2)nn1)C(=O)O)C(=O)O [Compound 14, (S)-2-(3((S)-1-carboxy-5-(4-((2-(2-(4-nitrophenylamino)ethoxy)ethoxy)methyl)-1H-1,2,3-triazol-1-yl)pentyl)ureido)pentanedioic acid]			0.06 ± 0.008	1.36 ± 0.18	Ki ([1]; Table 2 analogues): 0.078 nM
O=C(O)CC[C@H](NC(=O)N[C@@H](CCCCn1cc(COCCOCCNc2ccccc2)nn1)C(=O)O)C(=O)O [Compound 15, (S)-2-(3-((S)-1-carboxy-5-(4-((2-(2-(phenylamino)ethoxy)ethoxy)methyl)-1H-1,2,3-triazol-1-yl)pentyl)ureido)pentanedioic acid]			0.73 ± 0.28	16.6 ± 6.3	Ki ([1]; Table 2 analogues): 0.73 nM
COc1ccc(NCCOCCOCc2cn(CCCC[C@H](NC(=O)N[C@@H](CCC(=O)O)C(=O)O)C(=O)O)nn2)cc1 [Compound 16, (S)-2-(3-((S)-1-carboxy-5-(4-((2-(2-(4-methoxyphenylamino)ethoxy)ethoxy)methyl)-1H-1,2,3-triazol-1-yl)pentyl)ureido)pentanedioic acid]			0.97	21.9 ± 9.9	Ki ([1]; Table 2 analogues): 0.97 nM
O=C(O)CC[C@H](NC(=O)N[C@@H](CCCCn1cc(COCCOCCNC2CCCCC2)nn1)C(=O)O)C(=O)O [Compound 17, (S)-2-(3-((S)-1-carboxy-5-(4-((2-(2-(cyclohexylamino)ethoxy)ethoxy)methyl)-1H-1,2,3-triazol-1-yl)pentyl)ureido)pentanedioic acid]			15.1	342 ± 170	
CC(=O)N[C@@H](CC(=O)O)C(=O)N[C@@H](CCC(=O)O)C(=O)O [NAAG, N-acetyl-aspartylglutamate] (Ac-Asp-Glu-OH)					Km [2]: 0.925 µM
CC(C)(C)OC(=O)CC[C@H](NC(=O)N[C@@H](CCCCn1cc(COCCOCCOCCOCCNc2ccc([N+](=O)[O-])cc2[N+](=O)[O-])nn1)C(=O)OC(C)(C)C)C(=O)OC(C)(C)C [PC-ARM (3), (S)-di-tert-butyl 2-(3-((S)-1-tert-butoxy-6-(4-(13-(2,4-dinitrophenylamino)-2,5,8,11-tetraoxamidecyl)-1H-1,2,3-triazol-1-yl)-1-oxohexan-2-yl)ureido)pentanedioate]					Ki [3]: 0.9 ± 0.3 nM
